# Experimental data published in US20260272964A1, “PENTAGALLOYL GLUCOSE DERIVED FROM SCHINUS PLANTS AND METHODS OF USE” (Emory University, priority 2020, published 2026).
# Where two headings read alike, the source gives them in different places.
# Tested on: A. baumannii AB5075
# Assay: Resistance studies (agar plates and 21-day serial passaging)
# Type: cell-based, Acinetobacter baumannii
# Conditions: for MIC: Acinetobacter baumannii
# Procedure: To test for spontaneous development of resistance to PGG, A. baumannii AB5075 was inoculated on agar plates containing PGG at 0.5×MIC, 1×MIC, and 2×MIC (128, 256, and 512 μg/mL, respectively), and a control plate containing no PGG. […] Next, evolution of resistance was tested by serial passaging A. baumannii AB5075 for 21 days in the presence of a PGG gradient, using culture from the 0.5×MIC treatment for each subsequent passage. Serial passaging with a tetracycline gradient served as a control.
structure (smiles),measurement,setting,value
"CN(C)[C@@H]1C(O)=C(C(N)=O)C(=O)[C@@]2(O)C(O)=C3C(=O)c4c(O)cccc4[C@@](C)(O)[C@H]3C[C@@H]12 [tetracycline, reference compound]",fold increase in MIC,"A. baumannii, after 10 passages",16 fold
same,MIC,"AB5075, read-out: Base MIC",4 µg/mL
same,MIC,"AB5075, read-out: MIC after serial passaging",64 µg/mL
